Test results as given in patent US9168259B2 (GRÜNENTHAL GMBH, priority 2010, dated 2015).

Target: T1, KCNQ2/3 channels (Homo sapiens, UniProt O43525+O43526)
T1 construct: expressed in transfected cells
Assay: Fluorescence assay using a voltage sensitive dye (fluorimetry)
Type: cell-based
Conditions: CHO-K1 cells expressing KCNQ2/3; for Emax: CHO-K1, plateau effect relative to saturated retigabine (50 μM) = 100%, negative values = antagonistic, read-out: Fluorimetry % efficacy (retigabine = 100%); for EC50: IC50 where % efficacy is negative, read-out: Fluorimetry EC50/IC50

T1 sequence (O43526 whole entry): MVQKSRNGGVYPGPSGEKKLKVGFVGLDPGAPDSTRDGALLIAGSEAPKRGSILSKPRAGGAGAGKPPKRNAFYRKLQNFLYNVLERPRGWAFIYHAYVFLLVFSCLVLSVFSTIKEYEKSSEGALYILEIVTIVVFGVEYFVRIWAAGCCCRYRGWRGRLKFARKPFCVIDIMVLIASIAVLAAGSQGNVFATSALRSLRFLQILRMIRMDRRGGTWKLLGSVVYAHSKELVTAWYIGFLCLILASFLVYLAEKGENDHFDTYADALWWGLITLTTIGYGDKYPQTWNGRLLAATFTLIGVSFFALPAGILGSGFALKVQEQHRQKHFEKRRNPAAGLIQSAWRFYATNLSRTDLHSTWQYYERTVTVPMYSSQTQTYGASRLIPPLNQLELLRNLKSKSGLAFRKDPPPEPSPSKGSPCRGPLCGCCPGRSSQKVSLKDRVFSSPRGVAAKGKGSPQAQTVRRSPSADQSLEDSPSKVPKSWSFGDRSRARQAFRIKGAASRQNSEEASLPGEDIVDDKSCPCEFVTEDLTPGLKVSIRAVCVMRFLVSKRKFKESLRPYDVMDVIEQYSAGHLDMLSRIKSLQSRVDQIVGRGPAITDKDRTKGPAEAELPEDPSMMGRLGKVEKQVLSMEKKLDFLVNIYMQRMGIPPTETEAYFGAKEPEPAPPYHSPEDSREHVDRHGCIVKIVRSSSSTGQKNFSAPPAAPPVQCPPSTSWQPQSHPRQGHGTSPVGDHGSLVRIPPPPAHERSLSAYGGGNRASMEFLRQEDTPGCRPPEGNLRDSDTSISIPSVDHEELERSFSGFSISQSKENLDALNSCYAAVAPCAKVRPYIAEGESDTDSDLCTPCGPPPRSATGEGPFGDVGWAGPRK
T1 sequence (O43525 whole entry): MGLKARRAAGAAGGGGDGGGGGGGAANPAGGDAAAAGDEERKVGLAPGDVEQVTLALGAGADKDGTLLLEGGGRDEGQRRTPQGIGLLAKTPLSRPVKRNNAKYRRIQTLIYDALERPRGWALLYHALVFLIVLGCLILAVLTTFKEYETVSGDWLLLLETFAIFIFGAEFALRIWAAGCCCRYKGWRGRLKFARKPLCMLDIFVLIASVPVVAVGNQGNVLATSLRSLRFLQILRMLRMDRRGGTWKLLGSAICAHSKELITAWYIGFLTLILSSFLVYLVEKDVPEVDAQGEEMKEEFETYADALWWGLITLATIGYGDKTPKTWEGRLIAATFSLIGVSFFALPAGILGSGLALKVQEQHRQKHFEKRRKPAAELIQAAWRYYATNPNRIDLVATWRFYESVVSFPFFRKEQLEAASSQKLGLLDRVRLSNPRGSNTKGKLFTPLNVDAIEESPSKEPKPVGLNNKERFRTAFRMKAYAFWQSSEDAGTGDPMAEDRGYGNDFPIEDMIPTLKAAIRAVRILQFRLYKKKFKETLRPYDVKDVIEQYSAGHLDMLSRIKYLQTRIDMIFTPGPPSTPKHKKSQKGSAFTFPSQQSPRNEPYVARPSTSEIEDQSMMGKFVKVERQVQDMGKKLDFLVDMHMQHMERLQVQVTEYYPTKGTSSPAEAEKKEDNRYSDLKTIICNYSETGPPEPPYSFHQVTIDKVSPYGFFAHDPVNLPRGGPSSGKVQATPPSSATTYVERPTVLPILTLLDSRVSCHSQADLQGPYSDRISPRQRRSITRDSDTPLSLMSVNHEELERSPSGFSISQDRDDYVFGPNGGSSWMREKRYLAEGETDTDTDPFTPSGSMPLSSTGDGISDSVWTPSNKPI

## CCN(C)c1nc(N2CCOCC2)cc(C)c1C(=O)NCc1ccc(C(F)(F)F)cc1 [Example 188, 2-(Ethyl-methyl-amino)-4-methyl-6-morpholin-4-yl-N-[[4-(trifluoromethyl)-phenyl]-methyl]pyridine-3-carboxylic acid amide]
  Emax: 154%
  EC50: 343 nM

## COc1nc(N2CCOCC2)cc(C)c1C(=O)NCc1ccc(C(F)(F)F)cc1 [Example 117, 2-Methoxy-4-methyl-6-morpholin-4-yl-N-[[4-(trifluoromethyl)-phenyl]-methyl]pyridine-3-carboxylic acid amide]
  Emax: 128%
  EC50: 268 nM

## CCSc1nc(N2CCOCC2)cc(C)c1C(=O)NCCC(C)C(C)(C)C (centres unmarked) [Example 339, 2-Ethylsulfanyl-4-methyl-6-morpholin-4-yl-N-(3,4,4-trimethyl-pentyl)-pyridine-3-carboxylic acid amide]
  Emax: 202%
  EC50: 37 nM

## CCSc1nc(N2CCOC[C@H]2C)cc(C)c1C(=O)NCc1ccc(Cl)cc1 [Example 207, N-[(4-Chlorophenyl)-methyl]-2-ethylsulfanyl-4-methyl-6-[(3R)-3-methyl-morpholin-4-yl]-pyridine-3-carboxylic acid amide]
  Emax: 183%
  EC50: 69 nM

## CCCC1COCCN1c1cc(C)c(C(=O)NCc2cccc(F)c2)c(SCC)n1 (centres unmarked) [Example 213, 2-Ethylsulfanyl-N-[(3-fluorophenyl)-methyl]-4-methyl-6-(3-propyl-morpholin-4-yl)-pyridine-3-carboxylic acid amide]
  Emax: 131%
  EC50: 49 nM

## CCSc1nc(N2CCOC[C@H]2C)cc(C)c1C(=O)NCCCC(C)(C)C [Example 193, N-(4,4-Dimethyl-pentyl)-2-ethylsulfanyl-4-methyl-6-[(3R)-3-methyl-morpholin-4-yl]-pyridine-3-carboxylic acid amide]
  Emax: 246%
  EC50: 29 nM

## CCSc1nc(N2CCOCC2)cc(C)c1C(=O)NCCCC(C)(C)OC [Example 318, 2-Ethylsulfanyl-N-(4-methoxy-4-methyl-pentyl)-4-methyl-6-morpholin-4-yl-pyridine-3-carboxylic acid amide]
  Emax: 193%
  EC50: 2880 nM

## CCSc1nc(N2CCOCC2)cc(C)c1C(=O)NCCCc1cccc(F)c1 [Example 113, 2-Ethylsulfanyl-N-[3-(3-fluorophenyl)-propyl]-4-methyl-6-morpholin-4-yl-pyridine-3-carboxylic acid amide]
  Emax: 192%
  EC50: 212 nM

## CCSc1nc(N(C)CCOC)cc(C)c1C(=O)NCCCC(C)(C)C [Example 211, N-(4,4-Dimethyl-pentyl)-2-ethylsulfanyl-6-(2-methoxy-ethyl-methyl-amino)-4-methyl-pyridine-3-carboxylic acid amide]
  Emax: 225%
  EC50: 143 nM

## Cc1cc(N2CCOCC2)nc(C(C)C)c1C(=O)NCc1cc(F)cc(F)c1 [Example 316, N-[(3,5-Difluoro-phenyl)-methyl]-2-isopropyl-4-methyl-6-morpholin-4-yl-pyridine-3-carboxylic acid amide]
  Emax: 160%
  EC50: 29 nM

## COc1nc(N2CCOC[C@H]2C)cc(C)c1C(=O)NCc1ccc(Cl)cc1 [Example 215, N-[(4-Chlorophenyl)-methyl]-2-methoxy-4-methyl-6-[(3R)-3-methyl-morpholin-4-yl]-pyridine-3-carboxylic acid amide]
  Emax: 191%
  EC50: 147 nM

## CCSc1nc(N2CCOCC2)cc(C)c1C(=O)NCCCC1(C)COC1 [Example 343, 2-Ethylsulfanyl-4-methyl-N-[3-(3-methyl-oxetan-3-yl)-propyl]-6-morpholin-4-yl-pyridine-3-carboxylic acid amide]
  Emax: 163%
  EC50: 6840 nM

## CCSc1nc(N2CCOC(C)C2)cc(C)c1C(=O)NCc1cccc(F)c1 (racemic) [Example 48, 2-Ethylsulfanyl-N-[(3-fluorophenyl)-methyl]-4-methyl-6-(2-methyl-morpholin-4-yl)-pyridine-3-carboxylic acid amide]
  Emax: 145%
  EC50: 217 nM

## CCSc1nc(N2CCO[C@H](COC)C2)cc(C)c1C(=O)NCc1ccc(Cl)cc1 [Example 255, N-[(4-Chlorophenyl)-methyl]-2-ethylsulfanyl-6-[(2S)-2-(methoxymethyl)-morpholin-4-yl]-4-methyl-pyridine-3-carboxylic acid amide]
  Emax: 121%
  EC50: 169 nM

## CCSc1nc(N2CCOCC2)cc(C)c1C(=O)NCc1ccccc1C(F)(F)F [Example 51, 2-Ethylsulfanyl-4-methyl-6-morpholin-4-yl-N-[[2-(trifluoromethyl)-phenyl]methyl]-pyridine-3-carboxylic acid amide]
  Emax: -84%
  EC50: 541 nM

## CCSc1nc(N2CCOCC2)cc(C(F)(F)F)c1C(=O)NCc1cccc(F)c1 [Example 11, 2-Ethylsulfanyl-N-[(3-fluorophenyl)-methyl]-6-morpholin-4-yl-4-(trifluoromethyl)-pyridine-3-carboxylic acid amide]
  Emax: 41%
  EC50: 175 nM

## CCSc1nc(N2CCOC[C@H]2C)cc(C)c1C(=O)NCc1ccc(C(F)(F)F)cc1 [Example 237, 2-Ethylsulfanyl-4-methyl-6-[(3R)-3-methyl-morpholin-4-yl]-N-[[4-(trifluoromethyl)-phenyl]-methyl]-pyridine-3-carboxylic acid amide]
  Emax: 148%
  EC50: 56 nM

## CCN(C)c1nc(N2CCOC[C@H]2C)cc(C)c1C(=O)NCCCC(C)(C)C [Example 184, N-(4,4-Dimethyl-pentyl)-2-(ethyl-methyl-amino)-4-methyl-6-[(3R)-3-methyl-morpholin-4-yl]-pyridine-3-carboxylic acid amide]
  Emax: 228%
  EC50: 221 nM

## CCSc1nc(N2CCOCC2)cc(C)c1C(=O)NCCC(O)C(C)(C)C (centres unmarked) [Example 267, 2-Ethylsulfanyl-N-(3-hydroxy-4,4-dimethyl-pentyl)-4-methyl-6-morpholin-4-yl-pyridine-3-carboxylic acid amide]
  Emax: 223%
  EC50: 247 nM

## CCSc1nc(N2CCOCC2)cc(C)c1C(=O)NCc1ccc(F)cc1OC [Example 17, 2-Ethylsulfanyl-N-[(4-fluoro-2-methoxy-phenyl)methyl]-4-methyl-6-morpholin-4-yl-pyridine-3-carboxylic acid amide]
  Emax: 21%

## CCSc1nc(N2CCOCC2)cc(C)c1C(=O)NCCCC(F)(F)F [Example 84, 2-Ethylsulfanyl-4-methyl-6-morpholin-4-yl-N-(4,4,4-trifluoro-butyl)-pyridine-3-carboxylic acid amide]
  Emax: 203%
  EC50: 357 nM

## CCSc1nc(N2CCOCC2)cc(C)c1C(=O)NCc1ccccc1 [Example 55, N-Benzyl-2-ethylsulfanyl-4-methyl-6-morpholin-4-yl-pyridine-3-carboxylic acid amide]
  Emax: 162%
  EC50: 260 nM

## CCSc1nc(N2CC(COC)C2)cc(C)c1C(=O)NCc1cccc(F)c1 [Example 239, 2-Ethylsulfanyl-N-[(3-fluorophenyl)-methyl]-6-[3-(methoxymethyl)-azetidin-1-yl]-4-methyl-pyridine-3-carboxylic acid amide]
  Emax: 125%
  EC50: 1820 nM

## CCSc1nc(N2CCOCC2)cc(COC)c1C(=O)NCc1cccc(F)c1 [Example 346, 2-Ethylsulfanyl-N-[(3-fluorophenyl)-methyl]-4-(methoxymethyl)-6-morpholin-4-yl-pyridine-3-carboxylic acid amide]
  Emax: 157%
  EC50: 729 nM
